Molecular target: T1, APOL1 G1 (Homo sapiens, UniProt O14791, I384M/S342G)
T1 sequence (O14791 28-398 S342G/I384M): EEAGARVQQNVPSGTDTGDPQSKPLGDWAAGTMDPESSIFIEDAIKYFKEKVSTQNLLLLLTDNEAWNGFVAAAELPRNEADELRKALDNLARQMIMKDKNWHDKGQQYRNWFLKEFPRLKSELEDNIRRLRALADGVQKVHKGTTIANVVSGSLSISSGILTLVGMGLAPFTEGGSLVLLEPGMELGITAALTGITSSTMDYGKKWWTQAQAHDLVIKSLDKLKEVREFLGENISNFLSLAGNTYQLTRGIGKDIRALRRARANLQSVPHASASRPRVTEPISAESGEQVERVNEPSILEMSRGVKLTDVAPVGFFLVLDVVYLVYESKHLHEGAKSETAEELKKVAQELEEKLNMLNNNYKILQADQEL
Experiment: Trypanosoma brucei brucei Lysis Assay Using APOL1 Recombinant Protein (AlamarBlue viability readout)
Assay type: cell-based
Settings: Trypanosome Assay
How it was run: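 Percent viability comes from AlamarBlue (resazurin→resorufin) fluorescence interpolated on a standard curve of known parasite numbers, with no-APOL1 wells as 100%. Parasites (Lister 427 bloodstream form, 120,000/well, serum-free assay medium) meet 0.05 μg/mL APOL1 (~EC90). Compounds span a 10-point series, 0.1% DMSO final.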

**Q.** For `[2H]C1([2H])O[C@@]2(C[C@@H](c3cn(C)nn3)N[C@@H](C)C2)c2sc(Cl)cc2[C@]1([2H])O` [Compound 385, (2S,4S,4′S,6S)-2′-chloro-4′,5′,5′-trideuterio-2-methyl-6-(1-methyltriazol-4-yl)spiro[piperidine-4,7′-thieno[2,3-c]pyran]-4′-ol], which IC50 (IP50 = IC50 for cell proliferation, read-out: Trypanosome Assay IP50) is on record?
**A.** < 50 nM

**Q.** And the Emax (read-out: Trypanosome Assay Max Activity (%))?
**A.** 104%

From patent publication US12421249B2, “Inhibitors of APOL1 and methods of using same” (Vertex Pharmaceuticals Incorporated, priority 2020, dated 2025)
